Experimental data from patent US20180370912A1, “COMPOUNDS AND METHODS FOR TREATING DISEASES MEDIATED BY PROTEIN DISULFIDE ISOMERASE” (Beth Israel Deaconess Medical Center, Inc., priority 2017, published 2018).

Experiments:
ERp5 = molecular target: T1, ERp5 (Homo sapiens, UniProt Q15084); assay: Maleimide-polyethylene glycol-2-biotin (MPB) binding; conditions: 150 μM inhibitor, FIG. 2c, FIG. 8
T1 construct: recombinant His-tagged full-length ERp5, ERp72 and PDI domain fragments; His; made in house; host or cells: Escherichia coli Origami B (DE3), pET-15b
T1 sequence (Q15084 20-440): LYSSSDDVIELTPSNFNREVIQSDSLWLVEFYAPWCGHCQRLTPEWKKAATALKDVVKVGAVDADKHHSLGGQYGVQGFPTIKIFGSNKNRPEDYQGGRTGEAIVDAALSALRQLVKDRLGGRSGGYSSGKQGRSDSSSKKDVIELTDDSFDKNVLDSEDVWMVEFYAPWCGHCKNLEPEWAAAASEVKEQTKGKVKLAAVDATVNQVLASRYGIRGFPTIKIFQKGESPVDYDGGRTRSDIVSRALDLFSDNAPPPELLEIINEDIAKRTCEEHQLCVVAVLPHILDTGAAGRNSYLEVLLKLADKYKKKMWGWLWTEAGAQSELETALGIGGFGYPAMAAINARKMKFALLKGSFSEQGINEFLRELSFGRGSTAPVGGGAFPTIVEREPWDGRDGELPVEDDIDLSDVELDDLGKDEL
Experimental: (§1) Maleimide-Polyethanol glycol-2-Biotin (MPB) binding experiments were performed in a reaction volume of 37.5 μL with 5 μM of thiol isomerase or bovine serum albumin (BSA) in Tris-buffered saline (TBS), in the presence and absence of 1 mM of N-ethylmaleimide (NEM) or bacitracin, and 150 μM of the mentioned other inhibitors. The reaction mixture was incubated at 37° C. for 1 hour. Subsequently, the reaction mixtures were incubated with 25 μM of MPB. The labeling was performed for 20 minutes at 25° C. A total of 12.5 μL of 4× Laemmli Sample Buffer with 5% β-mercaptoethanol was added to each of the samples, followed by heating at 95° C. for 10 minutes. From each sample, 10 μL was loaded on a 12% SDS-PAGE gel, followed by transfer on a nitrocellulose membrane. After blocking the membrane with TBS-T containing 5% BSA for one hour, the membrane was incubated with a 1:2000 dilution of Cy5-tagged Streptavidin for an hour in the dark. Detection of the immunoblots was performed using ImageQuant LAS 4000 and analysis was performed using ImageQuant TL software.

ERp57 = molecular target: T2, ERp57 (Homo sapiens, UniProt P30101); assay: as above; conditions: 150 μM inhibitor, FIG. 2c, FIG. 8
T2 construct: FLAG; made in house; host or cells: Escherichia coli Origami B (DE3), pET-15b
T2 sequence (P30101 25-505): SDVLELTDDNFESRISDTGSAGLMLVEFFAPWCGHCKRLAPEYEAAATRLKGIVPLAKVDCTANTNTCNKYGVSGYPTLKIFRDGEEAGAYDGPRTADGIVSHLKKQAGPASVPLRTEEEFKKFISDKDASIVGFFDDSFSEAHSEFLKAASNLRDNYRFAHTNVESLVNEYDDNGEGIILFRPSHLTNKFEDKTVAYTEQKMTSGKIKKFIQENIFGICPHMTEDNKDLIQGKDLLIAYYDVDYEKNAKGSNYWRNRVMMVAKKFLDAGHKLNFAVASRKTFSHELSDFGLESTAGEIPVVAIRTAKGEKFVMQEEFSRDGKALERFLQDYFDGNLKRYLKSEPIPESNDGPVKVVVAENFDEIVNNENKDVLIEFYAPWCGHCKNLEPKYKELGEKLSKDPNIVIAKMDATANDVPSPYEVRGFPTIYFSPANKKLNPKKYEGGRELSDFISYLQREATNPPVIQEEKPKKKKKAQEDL
Experimental: as §1

thioredoxin = molecular target: T3, thioredoxin (Homo sapiens, UniProt P10599); assay: as above; conditions: 150 μM inhibitor, FIG. 2c, FIG. 8
T3 sequence (P10599 1-105): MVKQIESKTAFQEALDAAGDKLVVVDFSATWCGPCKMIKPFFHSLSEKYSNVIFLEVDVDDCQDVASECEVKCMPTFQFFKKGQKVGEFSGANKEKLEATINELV
Experimental: as §1

tumor growth = conditions: murine model ovarian cancer, Xu et al. 2012; cited from earlier work
[1] = molecular target: T4, PDI mutant in which the CGHC motif is mutated to AGHA (Homo sapiens, UniProt P07237, C397A/C400A/C53A/C56A); assay: Di-eosin-GSSG disulfide reductase assay, catalytically inactive mutant; assay type: biochemical; conditions: FIG. 1c
T4 sequence (P07237 18-508 C53A/C56A/C397A/C400A): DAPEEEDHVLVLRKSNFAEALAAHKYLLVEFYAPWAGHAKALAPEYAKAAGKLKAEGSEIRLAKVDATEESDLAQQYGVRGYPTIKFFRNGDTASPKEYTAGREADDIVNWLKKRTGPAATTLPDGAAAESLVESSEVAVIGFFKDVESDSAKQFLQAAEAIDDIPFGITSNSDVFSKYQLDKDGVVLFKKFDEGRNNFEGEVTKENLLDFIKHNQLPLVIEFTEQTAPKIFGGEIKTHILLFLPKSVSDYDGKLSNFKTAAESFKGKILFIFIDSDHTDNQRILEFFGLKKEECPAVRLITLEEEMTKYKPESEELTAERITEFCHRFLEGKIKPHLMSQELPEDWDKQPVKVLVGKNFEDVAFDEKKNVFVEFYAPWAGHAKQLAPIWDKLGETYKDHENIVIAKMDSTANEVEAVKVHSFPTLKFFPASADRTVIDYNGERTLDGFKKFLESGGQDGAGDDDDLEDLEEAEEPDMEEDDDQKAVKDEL
Experimental: The probe di-eosin glutathione disulfide, di-eosin-GSSG, was prepared as previously described in Raturi, A., Vacratsis, P. O., Seslija, D., Lee, L. & Mutus, B., Biochem J 391, 351-357 (2005). Reductase activity of purified thiol isomerases and PDI domains was monitored in a 96-well fluorescence plate format. PDI, AGHA-PDI, ERpS, ERp57, ERp72 and PDI domains were assayed at 50 nM in the presence or absence of the indicated small molecules, peptides or cathepsin G. The assay included 100 mM potassium phosphate (pH 7.4) containing 2 mM EDTA, 5 μM DTT and 150 nM of the di-eosin GSSG probe. The increase in fluorescence was determined for 20 minutes by excitation at 520 nm and emission at 550 nm in a Synergy Biotek 4. The reduction of 150 nM di-eosin-GSSG by 5 μM DTT in the presence or absence of mentioned small molecules, peptides or proteins served as a negative control.

full-length PDI = molecular target: T5, full-length PDI (Homo sapiens, UniProt P07237); assay: Small-angle X-ray scattering (SAXS)
T5 construct: FLAG; made in house; host or cells: Escherichia coli Origami B (DE3), pET-15b
T5 sequence (P07237 18-508): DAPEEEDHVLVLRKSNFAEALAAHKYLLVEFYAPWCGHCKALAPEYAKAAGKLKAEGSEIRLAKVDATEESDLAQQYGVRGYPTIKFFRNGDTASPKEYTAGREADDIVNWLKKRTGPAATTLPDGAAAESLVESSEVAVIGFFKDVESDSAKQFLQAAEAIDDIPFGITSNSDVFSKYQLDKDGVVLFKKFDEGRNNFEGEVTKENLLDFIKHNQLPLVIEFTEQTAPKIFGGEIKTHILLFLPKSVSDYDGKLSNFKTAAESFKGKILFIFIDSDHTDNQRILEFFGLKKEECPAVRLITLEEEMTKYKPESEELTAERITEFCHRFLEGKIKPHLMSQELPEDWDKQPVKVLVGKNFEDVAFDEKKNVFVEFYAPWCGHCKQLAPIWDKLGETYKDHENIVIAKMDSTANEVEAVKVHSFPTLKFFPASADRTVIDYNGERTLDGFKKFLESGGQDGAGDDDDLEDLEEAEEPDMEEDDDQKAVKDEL
Experimental: Further purification of full-length PDI was achieved by gel filtration. PDI (1.5, 3.0 and 4.5 mg/mL) was dialyzed against 20 mM Tris, 150 mM NaCl, 5% glycerol (pH: 8.0) containing 0.5 mM bepristat 1b or 2b or DMSO control at 4° C. overnight. Evaluation by SAXS was performed on the SIBYLS beamline in the Advanced Light Source using a high throughput data collection method.

Q: Which “reaction of MPB with the catalytic cysteines of ERp5” value (ERp5) does the source give for `C#CC(=O)N(c1ccc(OC)cc1OC)C(C(=O)NCC(=O)OCC)c1cccs1` (stereo not drawn) [PACMA-31, N-(2,4-Dimethoxyphenyl)-N-(1-oxo-2-propyn-1-yl)-2-(2-thienyl)glycyl-glycine ethyl ester, reference compound] here?
A: interfered with the reaction of maleimide-polyethylene glycol-2-biotin (MPB)

Q: What about the “reaction of MPB with the catalytic cysteines of ERp57” value (ERp57) of the same compound?
A: interfered with the reaction of maleimide-polyethylene glycol-2-biotin (MPB)

Q: What about the “reaction of MPB with the catalytic cysteines of thioredoxin” value (thioredoxin) of the same compound?
A: interfered with the reaction of maleimide-polyethylene glycol-2-biotin (MPB)

Q: What about the tumor growth (tumor growth) of the same compound?
A: impairs tumor growth

Q: Which results are given for `CCOC(=O)c1c(CNCCN(CC)CC)n(-c2ccccc2)c2cc(Br)c(O)cc12` [bepristat 2a]?
A: augmentation of activity of catalytically inactive PDI (AGHA) [1]: fails to augment activity; PDI conformation by SAXS (full-length PDI): more compact conformation
